According to patent publication US9096539B2, “Substituted 4,5-dihydro-2H-benzo[e]indazole-9-carboxylates for the treatment of diabetes and related disorders” (Council of Scientific & Industrial Research, priority 2012, dated 2015):
Where two headings read alike, the source gives them in different places.

Key:
[1] = system: sucrose loaded normoglycaemic rats; assay: Antihyperglycaemic activity on sucrose loaded normoglycaemic rats (SLM); format: in vivo, rat; conditions: for Blood Glucose Profile 0 min: 0 min (fasting baseline); for Blood Glucose Profile 0 min / Blood Glucose Profile 30 min / Blood Glucose Profile 60 min / Blood Glucose Profile 90 min / Blood Glucose Profile 120 min / % Antihyperglycaemic activity SLM: sucrose loaded normoglycaemic rats, compounds 100 mg/kg, Januvia 50 mg/kg; for Blood Glucose Profile 0 min / Blood Glucose Profile 30 min / Blood Glucose Profile 60 min / Blood Glucose Profile 90 min / Blood Glucose Profile 120 min: mean ± S.E.; for Blood Glucose Profile 30 min: 30 min post sucrose; for Blood Glucose Profile 60 min: 60 min post sucrose; for Blood Glucose Profile 90 min: 90 min post sucrose; for Blood Glucose Profile 120 min: 120 min post sucrose; for % Antihyperglycaemic activity SLM: AUC vs control, oral; for improvement in glucose tolerance: sucrose loaded normoglycemic rats, 100 mg/kg b.w., result in words
Protocol: (§1) The test compounds and standard antidiabetic drug Januvia were prepared in 1.0% freshly prepared Gum acacia.
Assessment of Test Compounds for Antihyperglycaemic Activity on Sucrose Loaded Normoglycaemic Rats—
In order to search towards the antidiabetic activity, synthetic compounds were preliminary evaluated for their effect on glucose tolerance in normal rats. It is an indirect effect of measuring antihyperglycaemic activity. Male albino rats of Wistar strain of body weight 160±20 g were selected for this study. The blood glucose of each animal was checked by glucometer using glucostrips (Accu-check) after 16 hours starvation. Animals showing blood glucose between 60 to 80 mg/dl (3.33 to 4.44 mM) were divided into groups of five to six animals in each. Rats of experimental group were administered suspension of the desired test compound orally (made in 1.0% gum acacia). The standard dose decided for Synthetic compounds is 100 mg/kg body weight. Animals of control group were given an equal amount of 1.0% gum acacia. A sucrose load (10.0 g/kg) was given to each animal orally exactly after 30 min post administration of the test sample/vehicle. Blood glucose profile of each rat was again determined at 30, 60, 90 and 120 min post administration of sucrose by glucometer. Food but not water was withheld from the cages during the course of experimentation. Quantitative glucose tolerance of each animal was calculated by area under curve (AUC) method using Prism Software. Comparing the AUC of experimental and control groups determined the percentage antihyperglycaemic activity. Statistical comparison was made by Dunnett's test.
(§2) Quantitative glucose tolerance of each animal was calculated by the area under the curve (AUC) method using Prism Software. The area under the curve of the control group and the experimental group was compared to determine the percent antihyperglycaemic activity. Statistical comparisons were performed by one-way analysis of variance (ANOVA), followed by Dunnett's multiple range test (DMRT). The results were considered statistically significant if the ‘p’ values were 0.05 or less. Results were expressed as mean±SEM.

[2] = system: low dosed STZ induced diabetic rats; assay: Antihyperglycaemic activity in low dosed streptozotocin induced diabetic rats (STZ); format: in vivo, rat; conditions: for Blood Glucose Profile 0 min (Pre treatment): 0 min pre treatment (fasting baseline); for Blood Glucose Profile 0 min (Pre treatment) / Blood Glucose Profile 30 min (Post treatment) / Blood Glucose Profile 60 min (Post treatment) / Blood Glucose Profile 90 min (Post treatment) / Blood Glucose Profile 120 min (Post treatment) / Blood Glucose Profile 180 min (Post treatment) / Blood Glucose Profile 240 min (Post treatment) / Blood Glucose Profile 300 min (Post treatment) / Blood Glucose Profile 1440 min (Post treatment) / % Antihyperglycaemic activity STZ 0-5 h AUC / % Antihyperglycaemic activity STZ 0-24 h AUC: low dosed STZ diabetic rats, compounds 100 mg/kg, Januvia 50 mg/kg; for % Antihyperglycaemic activity STZ 0-5 h AUC / % Antihyperglycaemic activity STZ 0-24 h AUC: oral; for lowering in the hyperglycaemia of the diabetic rats: low dosed streptozotocin induced diabetic rats, 100 mg/kg, result in words
Protocol: as §1
Assessment of Test Compounds for Antihyperglycaemic Activity in Low Dosed Streptozotocin Induced Diabetic Rats—
Induction of Diabetes in Rats:
Overnight starved male albino rats of Sprague Dawley strain were used and Diabetes was induced in the animals by single intraperitoneal injection of Streptozotocin at 60 mg/kg body weight dose prepared in 0.1M citrate buffer (pH 4.5). Fasting blood glucose level was measured by using a Glucometer (ACCU-CHEK II; Roche Diagnostics, USA) after 48 hours and animals showing blood glucose level above 300 mg/di were considered as diabetic.
The diabetic animals were divided into four groups (Group 1 to 4) each consisting 6 rats. Group 1 received 0.4 ml vehicle (1% gum acacia). Group 2 received the test compound 5 at an oral dose of 100 mg/kg/body weight. Group 3 was given compound 6 at an oral dose of 100 mg/kg/body weight. The standard antidiabetic drug Januvia was given to the animals of Group 4 at an oral dose of 50 mg/kg body weight. […] Food but not water was withheld from the cages during the course of experimentation. Percent hyperglycemic activity was determined by comparing the AUC (area under curve) of experimental groups with that of the vehicle treated control group.
as §2

[3] = target: T1, human recombinant PTP1B enzyme (Homo sapiens, UniProt P18031); assay: Protein tyrosine phosphatase-1B assay (colorimetric kit BML-AK 822); format: biochemical; conditions: for inhibition at 0.3 µM: read-out: % Inhibition at different Inhibitor concentration 0.3 μM; for inhibition at 1 µM: read-out: % Inhibition at different Inhibitor concentration 1 μM; for inhibition at 3 µM: read-out: % Inhibition at different Inhibitor concentration 3 μM; for inhibition at 5 µM: read-out: % Inhibition at different Inhibitor concentration 5 μM; for IC50: from % inhibition at 5 concentrations 0.3-10 μM
T1 construct: purchased Enzo Life Sciences, USA BML-AK 822
T1 sequence (P18031 1-322 limits assumed): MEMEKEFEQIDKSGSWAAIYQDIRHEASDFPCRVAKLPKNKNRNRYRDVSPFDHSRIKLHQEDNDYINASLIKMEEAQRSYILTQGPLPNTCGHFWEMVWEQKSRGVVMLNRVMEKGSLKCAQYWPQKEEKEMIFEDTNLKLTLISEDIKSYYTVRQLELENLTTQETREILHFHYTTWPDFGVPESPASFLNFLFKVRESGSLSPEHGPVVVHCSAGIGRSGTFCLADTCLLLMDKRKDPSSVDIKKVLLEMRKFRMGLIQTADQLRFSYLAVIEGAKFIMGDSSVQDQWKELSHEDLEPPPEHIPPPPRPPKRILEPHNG
Protocol: Assay was done according to the Kit manufacturers protocol, in brief the reaction was carried out in 96 well flat bottomed microtiter plate by the addition of assay buffer, solution of test compounds and diluted PTP1B enzyme. Enzyme reaction was initiated by addition of 50 μl of warmed 2× substrate then incubated the plate at 30° C. for 30 min. After incubation for 30 min. Reaction was terminated by addition of 25 μl of biomol red reagent and mixed thoroughly by repeated pipetting. […] Volumes and dilution of other component were accordingly as instructed in the manual provided in the kit. PTP1B phosphatase acting on the phosphopeptide substrate and release phosphate. The detection of free phosphate released is based on classic Malachite green assay. After adding biomol red to reaction wells after 30 minutes of incubation as described earlier the plate was incubated for another 20 min to develop the colour. Absorbance was recorded at 620 nm. on a microplate reader.

[4] = Table 5, evaluated at 10 μM concentration, read-out: % Inhibition (PTP-1B)
[5] = Table 6 dose response, 10 μM, read-out: % Inhibition at different Inhibitor concentration 10 μM

melting point	Compound	Blood Glucose Profile 0 min [1]	Blood Glucose Profile 30 min [1]	Blood Glucose Profile 60 min [1]	Blood Glucose Profile 90 min [1]	Blood Glucose Profile 120 min [1]	% Antihyperglycaemic activity SLM [1]	improvement in glucose tolerance [1]	Blood Glucose Profile 0 min (Pre treatment) [2]	Blood Glucose Profile 30 min (Post treatment) [2]	Blood Glucose Profile 60 min (Post treatment) [2]	Blood Glucose Profile 90 min (Post treatment) [2]	Blood Glucose Profile 120 min (Post treatment) [2]	Blood Glucose Profile 180 min (Post treatment) [2]	Blood Glucose Profile 240 min (Post treatment) [2]	Blood Glucose Profile 300 min (Post treatment) [2]	Blood Glucose Profile 1440 min (Post treatment) [2]	% Antihyperglycaemic activity STZ 0-5 h AUC [2]	% Antihyperglycaemic activity STZ 0-24 h AUC [2]	lowering in the hyperglycaemia of the diabetic rats [2]	further results
182 to 184 °C	COC(=O)c1c(SC)cc(-c2cccc3ccccc23)c2c1-c1cn(-c3ccccc3)nc1CC2 [compound 6, methyl 8-(methylthio)-6-(naphthalen-1-yl)-2-phenyl-4,5-dihydro-2H-benzo[e]indazole-9-carboxylate]	66.2 ± 2.63 mg/dL	120.0 ± 7.30 mg/dL	111.2 ± 7.30 mg/dL	110.4 ± 4.73 mg/dL	107.4 ± 4.95 mg/dL	23.5%	significant improvement in glucose tolerance	344.0 ± 3.91 mg/dL	444.6 ± 16.6 mg/dL	492.0 ± 13.6 mg/dL	490.2 ± 11.2 mg/dL	474.8 ± 15.0 mg/dL	426.0 ± 16.0 mg/dL	385.8 ± 15.6 mg/dL	355 ± 14.3 mg/dL	442.4 ± 9.64 mg/dL	18.9%	20.1%	significant lowering in the hyperglycaemia	inhibition at 10 µM [3, 4]: 76.9%; inhibition at 0.3 µM ([3]; Table 6 dose response): 0.5%; inhibition at 1 µM ([3]; Table 6 dose response): 11.2%; inhibition at 3 µM ([3]; Table 6 dose response): 16.2%; inhibition at 5 µM ([3]; Table 6 dose response): 28.8%; inhibition at 10 µM [3, 5]: 62.3%; IC50 [3]: 8.12 µM
178 to 180 °C	COC(=O)c1c(SC)cc(-c2ccc(C)cc2)c2c1-c1cn(-c3ccccc3)nc1CC2 [compound 5, methyl 8-(methylthio)-2-phenyl-6-p-tolyl-4,5-dihydro-2H-benzo[e]indazole-9-carboxylate]	66.2 ± 3.05 mg/dL	107.4 ± 7.76 mg/dL	104.8 ± 5.12 mg/dL	108.3 ± 3.59 mg/dL	109.8 ± 7.86 mg/dL	35.8%	significant improvement in glucose tolerance	346.6 ± 6.19 mg/dL	434.2 ± 12.4 mg/dL	481.2 ± 11.8 mg/dL	447.0 ± 8.16 mg/dL	434.8 ± 11.7 mg/dL	385.6 ± 5.8 mg/dL	353.6 ± 16.4 mg/dL	362.4 ± 17.6 mg/dL	483.0 ± 3.95 mg/dL	23.1%	18.2%	significant lowering in the hyperglycaemia	inhibition at 10 µM [3, 4]: 83.8%; inhibition at 0.3 µM ([3]; Table 6 dose response): 3.89%; inhibition at 1 µM ([3]; Table 6 dose response): 13.2%; inhibition at 3 µM ([3]; Table 6 dose response): 24.1%; inhibition at 5 µM ([3]; Table 6 dose response): 36.7%; inhibition at 10 µM [3, 5]: 67.8%; IC50 [3]: 7.12 µM
